Measured values reported in patent US20160160213A1, “METHODS OF TREATING CANCER AND PREVENTING CANCER DRUG RESISTANCE” (Genentech, Inc., priority 2013, published 2016).
“Also recorded” adds a separate entry of the source.

Legend:
EZH2 = EZH2 (Homo sapiens, UniProt Q15910); settings: read-out: EZH2 Ki^app; cited from earlier work
H3K27me3 = settings: cited from earlier work
PC9 DTP [1] = experiment: HDAC biased inhibitors on PC9 DTP with erlotinib, 30 days; type: cell-based, human; settings: G946 50 nM, G877 5 μM, erlotinib 1 μM
Text: FIG. 17A, FIG. 17B and FIG. 17C | HDAC (1), 2 and 3 are involved in the establishment of drug tolerance. siRNA against HDAC2 and 3 as well as inhibitors that are HDAC1/2 or 3 biased disrupt the drug-tolerant state. (A-B) Effect of siRNA knockdown of essential components of HDAC2 and HDAC3 on PC9 parental (light grey bars: media conditions) or DTP (dark grey: erlotinib condition) cell number using 4 different specific siRNAs per gene. Data are presented along with the data for the non-targeting (NTC) and siTOX controls in similar treatment conditions. (C) Effect of (C1) G946, HDAC1/2 biased inhibitor, and (C2) G877, HDAC3 biased inhibitor. G946 and G877 were tested at concentrations 50 nM and 5 μM, respectively. PC9 cells were treated with (DTP) (DMSO/erlotinib or HDAC inhibitor/erlotinib) (C1 and C2) for 30 days or without erlotinib (parental) (DMSO/Media or HDAC inhibitor/Media) (data not shown). Erlotinib concentration 1 μM.
To further investigate the role of HDACs in the establishment of drug tolerance, siRNA against HDAC2 and 3 as well as inhibitors that are HDAC1/2 or 3 biased were tested for their ability to disrupt the drug-tolerant state.

[2] = test system: EZH2 levels and trimethylation of lysine 27 on histone H3; settings: cultured human acute myeloid leukemia, dose-dependent manner (0.2-1 μM); cited from earlier work
PC9 cells = experiment: DZNep cell treatment, PC9 parental/DTP cell viability (CyQUANT Direct); type: cell-based, human
Method: DZNep was tested at concentrations ranging from 0.625 to 40 μM (A). PC9 cells were treated for 48 hours either with DZNep (DZNep/Media or DZNep/erlotinib) or DMSO control (DMSO/Media or DMSO/erlotinib) before treatment with (DTP) (DMSO/erlotinib or DZNep/erlotinib) or without erlotinib (parental)(DMSO/Media or DZNep/Media) for 72 hours. Cell number was determined after a 48-72 hours recovery phase in media alone. Effect of DZNep at 5 (B) and 0.625 μM (C) on PC9 parental (solid gray bars: media conditions) or DTP (diamond bars: erlotinib condition) cell number.
PC9 cells were seeded in black 96 well clear bottom plates (Coming, catalog #3603) at 1000 cells per well before to be treated with various concentration of 3-deazaneplanocin A (DZNep) from 40 down to 0.625 μM. After 48 hours of DZNep treatment the media was replaced with fresh media alone or in presence of 1 μM erlotinib. After 72 hours of incubation the media +/− erlotinib was then replaced with fresh media to enable recovery of the drug tolerant persisters (DTPs) that survived after the drug treatment. After 3 days recovery phase, final cell viability was measured using CyQUANT Direct cell proliferation assay (Molecular Probes) according to the manufacturer protocol. CyQUANT fluorescent signal was detected using a GE IN Cell Analyzer 2000 (4× objective) and quantified as number of cell per well using an image analysis algorithm developed using GE Developer Tollbox 1.9.1. Screening data were subsequently processed in Microsoft Excel. The entire Epi300 siRNA screen was run on each cell line twice in completely independent conditions.

H3K27me3 in EVSAT DTPs = experiment: Histone H3K27me3 Western blot in EVSAT DTPs treated with GDC-0908; type: cell-based; settings: GSK126 0.1, 0.5, 2.5 μM, EPZ-6438 0.05, 0.1, 0.5 μM, GDC-0908 2 μM
Method: GDC-0908 concentration 2 μM for FIG. 21A and FIG. 21B.
(§1) Cell lysates were prepared in Laemmli sample buffer and analyzed by immunoblotting as described previously. Cell lysates were analyzed using commercial antibodies against modifications on H3 (Active Motif and Cell Signaling Technologies).

H3K27me3 in PC9 DTPs = experiment: Histone H3K27me3 Western blot in PC9 DTPs treated with erlotinib; type: cell-based, human; settings: GSK126 0.1, 0.5, 2.5 μM, EPZ-6438 0.05, 0.1, 0.5, 1, 1.5 μM, erlotinib 1 μM
Method: FIG. 20A, FIG. 20B, FIG. 20C and FIG. 20D | EZH2 inhibitors (GSK126) disrupt the drug-tolerant state. (A) Increase in histone H3K27me^3 in PC9 DTPs treated with erlotinib is inhibited by EZH2 small molecule inhibitor (GSK126) at 0.1, 0.5, and 2.5 μM as shown by Western blot. (B) nuc-red PC9 cells were treated with DMSO/erlotinib or GSK126/erlotinib at 0.1, 0.5, or 2.5 μM (dark grey bar) or without erlotinib (DMSO/Media or GSK126/Media) (light grey bar) and analyzed IncuCyte™ at day 9 and 3, respectively. (C) nuc-red PC9 cells were treated with DMSO/erlotinib or GSK126/erlotinib at 2.5 μM for 9 days and imaged. (D) nuc-red PC9 cells were treated with DMSO/erlotinib or GSK126/erlotinib at 2.5 μM for 30 days and stained with Giemsa. Erlotinib concentration 1 μM for FIG. 20A, FIG. 20B, FIG. 20C and FIG. 20D.
(D) nuc-red PC9 cells were treated with DMSO/erlotinib or […] at 0.05, 0.1, or 1.0 μM) for 30 days and stained with Giemsa. Erlotinib concentration 1 μM for FIG. 22A, FIG. 22B, FIG. 22C and FIG. 22D.
as §1

EVSAT DTP = experiment: EZH2 inhibitors on EVSAT DTP cell growth with PI3K inhibitor (IncuCyte); type: cell-based; settings: GDC-0908 2 μM; GSK126 0.1, 0.5, 2.5 μM; EPZ-6438 0.05, 0.1, 0.5 μM
PC9 DTP [3] = experiment: EZH2 inhibitors on PC9 DTP cell growth with erlotinib (IncuCyte, Giemsa); type: cell-based, human; settings: erlotinib 1 μM; GSK126 0.1-2.5 μM; EPZ-6438 0.05-1.5 μM; day 9 and 30 days
Method: (A) Effect of siRNA knockdown of EZH2 on PC9 parental (light grey bars: media conditions) or DTP (dark grey: erlotinib condition) cell number using 8 different specific siRNAs (Dharmacon siGenome (×4) and On-Target Plus (OTP)(×4)) per gene. […] (B) Effect of GSK126 was tested at a concentration 1 μM.

SKBR3 cells = experiment: TSA on SKBR3 drug tolerant cells (radiotherapy or lapatinib); type: cell-based; settings: SKBR3, 2.5 Gy and 10 Gy, 25 nM TSA
Method: FIG. 16A, FIG. 16B and FIG. 16C | DTPs in a variety of models display increased sensitivity to HDAC inhibitors. (A) SKBR3 treated with 2.5 Gy in media alone or presence of 25 nM of the HDAC inhibitor TSA. (B) SKBR3 treated with 10 Gy in media alone or presence of 25 nM of the HDAC inhibitor TSA. (C) SKBR3 treated with 1 μM Lapatinib in media alone or presence of 25 nM of the HDAC inhibitor TSA.
The role of histone deacetylases was further test in additional models to elucidate their role in drug tolerance. The class I and II HDAC inhibitor TSA was tested in SKBR3 cells in combination with radiotherapy at 2.5 Gy and 10 Gy.

PC9 xenografts = experiment: PC9 xenograft tumor study; type: in vivo; settings: nude mice
Method: FIG. 18 | Effect of HDAC Inhibition using TSA (0.5 mg/kg) on erlotinib response in PC9 xenografts.
PC9 cells were cultured in growth media (RPMI 1640, 10% heat-inactivated fetal calf serum, 2 mM L-glutamine) to 80% confluency and then trypsinized, washed once with PBS, and resuspended in either Hank's Balanced Salt Solution (HBSS) or a 1:1 mixture of HBSS with matrigel [growth factor reduced; catalog #356231 (BD Biosciences, West Grove, Pa.)] to a final concentration of 5×10^7 cells/ml. Each xenograft tumor model was established using 5×10^6 cells (100 μL) inoculated subcutaneously (s.c.) in the rear right flank of immunocompromised mice. PC-9 and PC-9-GFP cells were implanted in HBSS with matrigel in nude (nu/nu) mice (Charles River Laboratories, Hollister, Calif.). When tumor volumes reach approximately 100-200 mm^3, mice were separated into groups of animals with similarly sized tumors, and treatment was initiated the day after grouping. Mice were dosed for 5 days a week (QD) oral gavage (PO) with erlotinib (50 mg/kg in 7.5% Captisol for first 4 doses then lowered to 35 mg/kg in 7.5% Captisol) and/or TSA (0.5 mg/kg) with appropriate vehicle control. […]

Sequence of EZH2 (Q15910 whole entry): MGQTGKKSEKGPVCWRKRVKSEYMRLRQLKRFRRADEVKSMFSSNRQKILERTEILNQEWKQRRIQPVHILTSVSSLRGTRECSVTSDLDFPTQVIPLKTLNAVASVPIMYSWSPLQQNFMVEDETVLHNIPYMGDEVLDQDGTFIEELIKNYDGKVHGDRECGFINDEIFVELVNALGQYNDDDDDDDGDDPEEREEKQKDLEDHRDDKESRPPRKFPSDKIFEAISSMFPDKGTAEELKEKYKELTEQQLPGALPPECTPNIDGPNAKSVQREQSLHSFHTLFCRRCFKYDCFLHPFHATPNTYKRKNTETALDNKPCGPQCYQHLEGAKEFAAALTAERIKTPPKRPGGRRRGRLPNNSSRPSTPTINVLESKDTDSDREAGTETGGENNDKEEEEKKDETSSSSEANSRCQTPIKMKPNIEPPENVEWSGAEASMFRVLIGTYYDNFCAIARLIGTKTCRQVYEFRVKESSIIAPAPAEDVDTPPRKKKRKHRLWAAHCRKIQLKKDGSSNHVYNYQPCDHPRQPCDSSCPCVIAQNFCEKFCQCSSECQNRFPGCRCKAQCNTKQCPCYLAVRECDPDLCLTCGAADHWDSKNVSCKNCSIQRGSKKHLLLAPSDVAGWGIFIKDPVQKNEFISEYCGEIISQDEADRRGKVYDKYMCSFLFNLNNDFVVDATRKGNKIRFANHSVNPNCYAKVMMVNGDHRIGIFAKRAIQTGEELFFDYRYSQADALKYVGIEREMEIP
Sequence of EZH2 (O75530 whole entry partner): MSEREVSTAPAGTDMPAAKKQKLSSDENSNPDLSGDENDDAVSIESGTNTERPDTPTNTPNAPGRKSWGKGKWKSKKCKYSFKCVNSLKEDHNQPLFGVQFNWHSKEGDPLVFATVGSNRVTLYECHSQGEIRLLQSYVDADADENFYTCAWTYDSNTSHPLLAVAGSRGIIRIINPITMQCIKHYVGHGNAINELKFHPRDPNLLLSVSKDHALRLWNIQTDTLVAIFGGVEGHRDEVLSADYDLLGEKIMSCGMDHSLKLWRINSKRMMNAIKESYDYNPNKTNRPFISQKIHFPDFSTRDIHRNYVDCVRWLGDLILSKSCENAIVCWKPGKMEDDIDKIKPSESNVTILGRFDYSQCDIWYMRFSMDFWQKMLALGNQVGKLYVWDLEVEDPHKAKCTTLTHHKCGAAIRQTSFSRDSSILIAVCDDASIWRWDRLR
Sequence of EZH2 (Q15022 whole entry partner): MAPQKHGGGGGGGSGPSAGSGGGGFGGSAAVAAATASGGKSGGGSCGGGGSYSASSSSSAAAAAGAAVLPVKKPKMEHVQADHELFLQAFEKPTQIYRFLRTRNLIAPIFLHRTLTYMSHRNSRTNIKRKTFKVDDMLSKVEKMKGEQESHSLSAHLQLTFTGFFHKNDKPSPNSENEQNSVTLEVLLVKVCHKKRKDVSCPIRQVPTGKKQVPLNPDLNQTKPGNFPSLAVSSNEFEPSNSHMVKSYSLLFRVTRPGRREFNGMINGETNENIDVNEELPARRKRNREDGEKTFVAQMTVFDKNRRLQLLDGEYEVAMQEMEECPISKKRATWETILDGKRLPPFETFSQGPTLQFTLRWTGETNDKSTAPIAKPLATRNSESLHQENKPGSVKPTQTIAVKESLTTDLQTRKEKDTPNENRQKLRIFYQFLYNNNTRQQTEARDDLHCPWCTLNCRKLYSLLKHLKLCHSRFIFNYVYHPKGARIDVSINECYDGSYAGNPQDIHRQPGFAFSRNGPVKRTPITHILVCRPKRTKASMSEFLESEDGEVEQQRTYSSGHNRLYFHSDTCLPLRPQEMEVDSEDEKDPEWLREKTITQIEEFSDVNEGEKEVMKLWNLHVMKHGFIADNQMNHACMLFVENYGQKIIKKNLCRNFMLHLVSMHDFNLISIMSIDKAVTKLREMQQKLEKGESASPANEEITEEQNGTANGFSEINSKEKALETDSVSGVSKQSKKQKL
Sequence of EZH2 (Q09028 whole entry partner): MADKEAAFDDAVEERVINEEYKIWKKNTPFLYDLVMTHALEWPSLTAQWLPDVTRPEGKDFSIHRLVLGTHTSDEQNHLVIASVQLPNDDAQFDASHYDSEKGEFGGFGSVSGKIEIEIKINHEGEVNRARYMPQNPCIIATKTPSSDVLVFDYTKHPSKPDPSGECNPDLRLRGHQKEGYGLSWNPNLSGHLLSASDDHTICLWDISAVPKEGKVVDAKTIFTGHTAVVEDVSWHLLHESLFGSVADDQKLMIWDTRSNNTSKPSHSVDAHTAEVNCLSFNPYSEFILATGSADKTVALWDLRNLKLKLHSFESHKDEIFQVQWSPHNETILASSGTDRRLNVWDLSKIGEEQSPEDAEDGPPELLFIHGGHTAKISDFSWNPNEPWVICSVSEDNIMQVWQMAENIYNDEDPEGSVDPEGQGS

Cc1cc(C)c(CNC(=O)c2cc(C3CC3)cc3c2cnn3C(C)C)c(=O)[nH]1 [Compound 2]
Ki (EZH2): 74 ± 11 nM
IC50 (H3K27me3): 2510 nM

CCCc1cc(C)[nH]c(=O)c1CNC(=O)c1cc(-c2ccc(N3CCN(C)CC3)nc2)cc2c1cnn2C(C)C [Compound 4]
Ki (EZH2): 0.6 ± 0.05 nM
IC50 (H3K27me3): 79 ± 7 nM

Cc1cc(C)c(CNC(=O)c2cc(-c3ccnc(N4CCN(C)CC4)c3)cc3c2cnn3C(C)C)c(=O)[nH]1 [Compound 5]
Ki (EZH2): 14 ± 5 nM
IC50 (H3K27me3): 2000 nM

CCCc1cc(C)[nH]c(=O)c1CNC(=O)c1cc(-c2ccnc(N3CCN(C)CC3)c2)cc2c1cnn2C(C)C [Compound 6]
IC50 (H3K27me3): 174 ± 84 nM

Cc1ccc(C(=O)NCCCCCC(=O)Nc2ccc(F)cc2N)cc1 [Compound G877]
cell growth of PC9 DTP with erlotinib (PC9 DTP [1]): effective in reducing cell growth

CC(=O)Nc1ccc(C(=O)Nc2cc(-c3cccs3)ccc2N)cc1 [Compound G946]
cell growth of PC9 DTP with erlotinib (PC9 DTP [1]): effective in reducing cell growth

Nc1nccc2c1ncn2[C@@H]1C=C(CO)[C@@H](O)[C@H]1O [DZNep, 3-deazaneplanocin A]
EZH2 levels and trimethylation of lysine 27 on histone H3 [2]: deplete EZH2 levels and to inhibit trimethylation of lysine 27 on histone H3
cell killing compared to erlotinib alone (PC9 cells; DZNep 0.625 uM with 1 μM erlotinib): 75.8%
cell killing compared to erlotinib alone (PC9 cells; DZNep 5 uM with 1 μM erlotinib): 87.5%
effect by itself on PC9 DTP cell viability (PC9 cells; DZNep 0.625 and 5 uM, without erlotinib): not effect
cell viability in media alone (PC9 cells; DZNep 0.625 to 10 uM, media alone): minimum impact
PC9 DTP cell viability in combination with erlotinib (PC9 cells; DZNep concentrations as low as 0.625 uM, 1 μM erlotinib): very significantly decrease

CCN(c1cc(-c2ccc(CN3CCOCC3)cc2)cc(C(=O)NCc2c(C)cc(C)[nH]c2=O)c1C)C1CCOCC1 [EPZ-6438, N-((4,6-dimethyl-2-oxo-1,2-dihydropyridin-3-yl)methyl)-5-(ethyl(tetrahydro-2H-pyran-4-yl)amino)-4-methyl-4′-(morpholinomethyl)-[1,1′-biphenyl]-3-carboxamide]
histone H3K27me3 (H3K27 trimethylation) in EVSAT DTPs treated with GDC-0908 (H3K27me3 in EVSAT DTPs): effective in reducing H3K27 trimethylation; also recorded: inhibited
histone H3K27me3 (H3K27 trimethylation) in PC9 DTPs treated with erlotinib (H3K27me3 in PC9 DTPs): effective in reducing H3K27 trimethylation; also recorded: inhibited

CC[C@H](C)n1cc(C)c2c(C(=O)NCc3c(C)cc(C)[nH]c3=O)cc(-c3ccc(N4CCNCC4)nc3)cc21 [GSK126, (S)-1-(sec-butyl)-N-((4,6-dimethyl-2-oxo-1,2-dihydropyridin-3-yl)methyl)-3-methyl-6-(6-(piperazin-1-yl)pyridin-3-yl)-1H-indole-4-carboxamide]
histone H3K27me3 (H3K27 trimethylation) in EVSAT DTPs treated with GDC-0908 (H3K27me3 in EVSAT DTPs): effective in reducing H3K27 trimethylation; also recorded: inhibited
histone H3K27me3 (H3K27 trimethylation) in PC9 DTPs treated with erlotinib (H3K27me3 in PC9 DTPs): effective in reducing H3K27 trimethylation; also recorded: inhibited
cell growth of EVSAT DTP with PI3 kinase inhibitor (EVSAT DTP): effective in reducing cell growth in a dose dependent manner
cell growth of PC9 DTP with erlotinib (PC9 DTP [3]): effective in reducing cell growth in a dose dependent manner

CC(/C=C/C(=O)NO)=C\[C@@H](C)C(=O)c1ccc(N(C)C)cc1 [TSA, Trichostatin A]
effect on radiotherapy drug tolerant cells (SKBR3 cells): significant effect and eliminated radiotherapy drug tolerant cells
tumor growth, TSA alone (PC9 xenografts; TSA 0.5 mg/kg): no effect
tumor relapse, combination of erlotinib+TSA (PC9 xenografts; TSA 0.5 mg/kg with erlotinib 50 then 35 mg/kg PO): substantial delay in tumor relapse
